# Source: patent publication US11834697B2, “Electrochemical recognition and quantification of cytochrome c oxidase expression in bacteria” (OXFORD UNIVERSITY INNOVATION LIMITED, priority 2017, dated 2023)
# How the values were obtained:
# [1] = tested on: cytochrome c oxidase in E. coli; assay: Chronoamperometry of drop-cast bacteria, turnover number per single bacterium; format: cell-based, Escherichia coli
# Protocol: (§1) For the localized electrochemical recognition of cytochrome c oxidases in bacteria, target cultures were immobilized onto a gold macroelectrode by drop-casting and immersed into a solution of PBS, containing 1.7 mM TMPD^+• (FIG. 3). The radical cation can be reduced electrochemically at the electrode to TMPD, providing the substrate for the target bacteria to oxidise and convert TMPD back to TMPD^+•. The chemical oxidation of TMPD to TMPD^+• can then be observed electrochemically.
# A 3 mm (diameter) gold macroelectrode (Alvatek Ltd, UK) was used as the working electrode for all bioelectrochemical measurements. After polishing, sonication of the macroelectrode was applied for 2 minutes to assure removal of alumina powder from the electrode surface. Bacteria were immobilized onto the electrode by drop casting. For this purpose, the macroelectrode was placed in an electrode holder inside a 50 mL falcon tube, keeping it in an upright position. Bacteria suspension was diluted so that all depositions consisted of 3 μL bacteria suspension representing monolayer concentrations of 0.5 to 30. The falcon tube was closed and the bacteria suspension dried under N2 flow. Evaporation was monitored by eye and N2 flow was stopped the moment all liquid was evaporated. The electrode was removed from the holder and was placed in the electrochemical set up. The electrochemical cell remained thermostated to 37° C. throughout the experiments.
# Chronoamperometry was carried out immediately after drop-casting of bacteria to minimize cell death at the electrode. […]
# E. coli bacteria, cultured under aerobic conditions, were then investigated. […] The enhanced electrochemical signal in the presence of E. coli can also be recorded during cyclic voltammetry. However, due to the small current range detected, scan rates as low as 2 mV s^−1 need to be applied in order to visualize the oxidation process of TMPD by the bacteria. […] Consequently, chronoamperometry measurements were chosen for quantitative analyses. […]
# [2] = tested on: cytochrome c oxidase in B. subtilis; assay: as above; format: cell-based, Bacillus subtilis; settings: B. subtilis grown on agar; current at 8 s; 37° C.
# Protocol: as §1
# A 3 mm (diameter) gold macroelectrode (Alvatek Ltd, UK) was used as the working electrode for all bioelectrochemical measurements. After polishing, sonication of the macroelectrode was applied for 2 minutes to assure removal of alumina powder from the electrode surface. Bacteria were immobilized onto the electrode by drop casting. […] Evaporation was monitored by eye and N2 flow was stopped the moment all liquid was evaporated. […]
# As during drop-casting both living and dead bacteria in a solution are deposited at an electrode, flow cytometry measurements were performed to estimate the percentage of living cells in solution that contribute to the electrochemical signal (FIG. 7). […] Taking the electrochemical current during chronoamperometry (measurement point at 8 s), a turnover number was determined. […] As such, a turnover number per single bacterium (Tsb) could be calculated using the equation: […]
# [3] = Cyclic voltammetry of TMPD-BF4 at gold macroelectrode with DigiSim simulation; format: physicochemical
# Protocol: [formula] in which C is the concentration, Iss represents the steady state current, F is the Faraday constant, D is the diffusion coefficient and a is the radius of the electroactive surface of the microelectrode), and its electrochemical behaviour was analysed using cyclic voltammetry. […] Various scan rates, ranging from 30 to 300 mV s^−1, were applied. As the singly oxidized form of TMPD, the TMPD^+• radical cation can be reduced to TMPD and oxidized to TMPD^2+: TMPD^+•+e^− ? TMPD (1) TMPD^2++e^− ? TMPD^+• (2)
# in which only the first redox reaction is fully reversible,[25] and will be the focus of this method. Using the commercial simulation software DigiSim® (Basi), theoretical curves were fitted to the experimental data.[26-30] […] A diffusion coefficient DTMPD-BF4 of 1.0×10^−5 cm^2 s^−1 was determined for a solution temperature of 37° C. and fixed in the DigiSim® program. Detailed information about the calculation of DTMPD-BF4 can be found below. Following the approach in the literature,[31] the redox reaction (1) was simulated to determine the Butler-Volmer kinetic parameters of TMPD^+• reduction at the macroelectrode and a fitting of the concentration-independent heterogeneous standard electrochemical rate constant (ks), as well as the standard electrode potential E0, was conducted. To account for minor solution changes related to the oxidation of TMPD by oxygen, the initial concentration ratio of TMPD to TMPD^+• was slightly adjusted for each scan without changing the overall shape or position of the simulated curves. This allowed an offset correction for the presented curves and a capacitive contribution of between 10 to 30 μF was attributed. From the simulations, the standard electrochemical rate constant ks was determined to be equal to or greater than 0.025 cm s^−1, and a standard electrode potential E0 of 0.013 (±0.001) V vs. SCE was determined. […]
# A diffusion coefficient (DTMPD-BF4) of 1×10^−5 cm^2 s^−1 was found following the reversible Randles-Ševčík method. […] The diffusion coefficient was determined using the equation
Compound,turnover number per single bacterium (Tsb) ([1]; E. coli grown aerobically (exponential phase)),turnover number per single bacterium (Tsb) ([1]; E. coli grown in broth to the stationary phase),"turnover number per single bacterium (Tsb) ([1]; E. coli grown to the exponential phase (aerobic), current at 8 s)",turnover number per single bacterium (Tsb) [2],"diffusion coefficient DTMPD-BF4 ([3]; 2.1 mM TMPD-BF4 in PBS pH 7.4, 37° C., Randles-Ševčík, 3 mm gold electrode)","standard electrochemical rate constant ks ([3]; TMPD^+• reduction at gold macroelectrode, fitted by simulation) [cm/s]","standard electrode potential E0 ([3]; TMPD^+•/TMPD couple, fitted by simulation)"
"CN(C)c1ccc(N(C)C)cc1 [TMPD, N,N,N′,N′-tetramethyl-para-phenylene diamine]",3.8 (±0.06)×10^8 L mol^−1 s^−1,1.8 (±0.3)×10^9 L mol^−1 s^−1,3.8 (±0.06)×10^8 L mold s^−1,9.8 (±0.3)×10^8 L mol^−1 s^−1,,,
"N,N,N′,N′-tetramethyl-para-phenylene diamine tetrafluoroborate [TMPD-BF4]",,,,,1×10^−5 cm^2 s^−1,≥ 0.025,0.013 (±0.001) V vs. SCE
